According to US20180110754A1, “CENICRIVIROC FOR THE TREATMENT OF FIBROSIS” (Tobira Therapeutics, Inc., priority 2015, published 2018):
“And” between values parts separate entries of the source, which are not always exact repeats. Equal entries are not always repeated.

Assays:
[1] = test system: STAM mouse model of Non-alcoholic Steatohepatitis; assay: STAM mouse model of NASH, week 9 (anti-NASH/fibrosis effects); type: in vivo; settings: for Sirius red-positive area (fibrosis area): perivascular space included; for Modified Sirius red-positive area: perivascular space subtracted
Description: NASH was induced in male mice by a single injection of 200 μg streptozotocin 2 days after birth (causing impaired glucose control), followed by a high fat diet from 4 weeks of age. […] Animals were sacrificed at 9 weeks of age, and biochemical, gene expression, and histologic evaluations of the liver were conducted.

[2] = test system: STAM mouse model of Non-alcoholic Steatohepatitis (NASH-derived HCC); assay: STAM mouse model of NASH, week 18 (anti-HCC effects); settings: for Mice that died before sacrifice (survival analysis): weeks 6-18
Description: Group 1—Vehicle: Eighteen NASH mice were orally administered vehicle at a volume of 10 mL/kg twice daily (9:00 and 19:00) from 6 weeks of age.

[3] = biological target: T1, CCR2 (Homo sapiens, UniProt P41597); assay: MCP-1-induced CCR2 internalization / CCR2 receptor occupancy on monocytes (flow cytometry); type: cell-based
T1 construct: endogenous in cells; host or cells: monocytes within PBMCs from HIV+ and HIV- subjects
T1 sequence (P41597 1-360 isoform P41597-2): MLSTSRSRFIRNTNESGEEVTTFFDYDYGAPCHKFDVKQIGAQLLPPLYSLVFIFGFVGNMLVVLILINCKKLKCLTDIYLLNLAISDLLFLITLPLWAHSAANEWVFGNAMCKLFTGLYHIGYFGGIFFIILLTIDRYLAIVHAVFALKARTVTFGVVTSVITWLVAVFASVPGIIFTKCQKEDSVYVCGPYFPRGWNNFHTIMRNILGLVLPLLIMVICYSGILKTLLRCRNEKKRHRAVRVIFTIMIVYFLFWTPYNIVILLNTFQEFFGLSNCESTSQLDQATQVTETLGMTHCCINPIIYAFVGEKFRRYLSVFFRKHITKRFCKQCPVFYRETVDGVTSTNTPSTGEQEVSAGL
Description: The capacity of each drug to inhibit CCR5 or CCR2 internalization was evaluated. Cell-surface expression of CCR5 and CCR2 was assessed by flow cytometry, and fluorescence values were converted into molecules of equivalent soluble fluorescence (MESF).

[4] = Study 201: safety and tolerability; type: in vivo, human
Description: Participants were required to be antiretroviral treatment-experienced, CCR5 antagonist-naive, with HIV-1 RNA levels of at least 5000 copies/mL and CD4+ cell counts of at least 250 cells/mm^3 was performed.

[5] = test system: HIV-1; assay: Ex vivo intracellular HIV DNA qPCR in PBMCs of Study 202 participants; set-up: species or system human; settings: EFV 600 mg, week 24
Description: Intracellular DNA qPCR. Total DNA was extracted, quantified, and stored at −80 C.
The Mann-Whitney test was used to analyze in vitro intracellular HIV DNA levels for all three treatment groups. All data were analyzed using Prism 5 software.

[6] = CVC-high 100 mg/kg/day, week 9, listed as Cenicriviroc
[7] = CVC-low 20 mg/kg/day, week 9, listed as Cenicriviroc
[8] = CVC-high 100 mg/kg/day, week 18
[9] = CVC-high 100 mg/kg/day, week 18, listed as Cenicriviroc
[10] = CVC-low 20 mg/kg/day, week 18, listed as Cenicriviroc

## CCCCOCCOc1ccc(-c2ccc3c(c2)/C=C(/C(=O)Nc2ccc([S@@+]([O-])Cc4cncn4CCC)cc2)CCCN3CC(C)C)cc1 [CVC, (S)-8-[4-(2-Butoxyethoxy)phenyl]-1-isobutyl-N-(4-{[(1-propyl-1H-imidazol-5-yl)methyl]sulfinyl}phenyl)-1,2,3,4-tetrahydro-1-benzazocine-5-carboxamide]
[1]; 20 and 100 mg/kg/day, week 9
  Effect on body or liver weight, whole blood glucose, or liver triglycerides: no effect
[1]; CVC 20 and 100 mg/kg/day, week 9
  Decrease of collagen type 1 mRNA in whole liver lysates (real-time RT-PCR): 27-37%
[1]; CVC-high 100 mg/kg/day, week 9
  Body weight: 18.7 ± 0.9 g
  F4/80-positive area (inflammation area): 4.96±0.60%
  F4/80 and CD16/32-positive cells: 41.5±8.2%
  F4/80 and CD206-positive cells: 33.1±3.0%
  Liver hydroxyproline: 0.62±0.09 μg/mg total protein
  Liver triglyceride: 51.7±14.1 mg/g liver
  Liver weight: 1307 ± 119 mg
  NAFLD Activity Score (NAS): 3.7±0.8
  Oil red-positive area (fat deposition area): 7.23±3.59%
  Plasma ALT: 51±13 U/L and 52±13 U/L
  Plasma MCP-1: 91 ± 14 pg/mL
  Plasma MIP-1β: 20 ± 4 pg/mL
  TUNEL-positive cells: 39.0±5.3%
  Whole blood glucose: 585 ± 91 mg/dL
[1]; [6]
  Body weight: 18.7 ± 0.9 g
  F4/80-positive area (inflammation area): 4.96 ± 0.60%
  F4/80 and CD16/32-positive cells: 41.5 ± 8.2%
  F4/80 and CD206-positive cells: 33.1 ± 3.0%
  Liver hydroxyproline: 0.62 ± 0.09 μg/mg total protein
  Liver triglyceride: 51.7 ± 14.1 mg/g liver
  Liver weight: 1307 ± 119 mg
  NAFLD Activity Score (NAS): 3.7 ± 0.8
  Oil red-positive area (fat deposition area): 7.23 ± 3.59%
  Plasma ALT: 52 ± 13 U/L
  Plasma MCP-1: 91 ± 14 pg/mL
  Plasma MIP-1β: 20 ± 4 pg/mL
  TUNEL-positive cells: 39.0 ± 5.3%
  Whole blood glucose: 585 ± 91 mg/dL
  Sirius red-positive area (fibrosis area): 0.64 ± 0.19%
  Modified Sirius red-positive area: 0.20 ± 0.06%
[1]; CVC-high, Sirius red, mice 301-306 (raw data), listed as Cenicriviroc
  Modified positive area (%), per mouse: 0.12% and 0.26% and 0.17% and 0.27% and 0.18% and 0.20%
[1]; CVC-high, Sirius red, mice 301-306, photos 1-5 (raw data), listed as Cenicriviroc
  Modified positive area (%), individual photo: 0.17% (2×) and 0.28% (2×) and 0.22% (2×) and 0.08% (3×) and 0.05% and 0.09% (2×) and 0.32% and 0.07% (3×) and 0.16% and 0.20% (2×) and 0.68% and 0.23% (2×) and 0.27% and 0.12% and 0.11% and 0.67% and 0.26% and 0.06% and 0.10% and 0.41%
[1]; CVC-high, week 9, n=6
  Number of animals with Hepatocyte ballooning score 0: 1
  Number of animals with Hepatocyte ballooning score 1: 2
  Number of animals with Hepatocyte ballooning score 2: 3
  Number of animals with Lobular inflammation score 1: 3
  Number of animals with Lobular inflammation score 2: 3
  Number of animals with Steatosis score 1: 5
[1]; CVC-low 20 mg/kg/day, week 9
  Body weight: 19.5 ± 2.0 g
  F4/80-positive area (inflammation area): 4.77±1.02%
  F4/80 and CD16/32-positive cells: 38.7±7.6%
  F4/80 and CD206-positive cells: 34.7±6.3%
  Liver hydroxyproline: 0.63±0.05 μg/mg total protein
  Liver triglyceride: 48.5±16.1 mg/g liver
  Liver weight: 1334 ± 99 mg
  NAFLD Activity Score (NAS): 4.0±0.6
  Oil red-positive area (fat deposition area): 6.51±3.88%
  Plasma ALT: 58±12 U/L
  Plasma MCP-1: 68 ± 16 pg/mL
  Plasma MIP-1β: 18 ± 2 pg/mL
  TUNEL-positive cells: 43.3±2.9%
  Whole blood glucose: 585 ± 91 mg/dL
[1]; [7]
  Body weight: 19.5 ± 2.0 g
  F4/80-positive area (inflammation area): 4.77 ± 1.02%
  F4/80 and CD16/32-positive cells: 38.7 ± 7.6%
  F4/80 and CD206-positive cells: 34.7 ± 6.3%
  Liver hydroxyproline: 0.63 ± 0.05 μg/mg total protein
  Liver triglyceride: 48.5 ± 16.1 mg/g liver
  Liver weight: 1334 ± 99 mg
  NAFLD Activity Score (NAS): 4.0 ± 0.6
  Oil red-positive area (fat deposition area): 6.51 ± 3.88%
  Plasma ALT: 58 ± 12 U/L
  Plasma MCP-1: 68 ± 16 pg/mL
  Plasma MIP-1β: 18 ± 2 pg/mL
  TUNEL-positive cells: 43.3 ± 2.9%
  Whole blood glucose: 585 ± 91 mg/dL
  Sirius red-positive area (fibrosis area): 0.66 ± 0.16%
  Modified Sirius red-positive area: 0.29 ± 0.14%
[1]; CVC-low, week 9, n=6
  Number of animals with Hepatocyte ballooning score 1: 3
  Number of animals with Hepatocyte ballooning score 2: 3
  Number of animals with Lobular inflammation score 1: 3
  Number of animals with Lobular inflammation score 2: 3
  Number of animals with Steatosis score 1: 6
[1]; high dose 100 mg/kg/day, week 9
  Increase in plasma monocyte chemotactic protein-1 levels: 1.5 fold
[1]; low dose 20 mg/kg/day, week 9
  Increase in plasma monocyte chemotactic protein-1 levels: 1.1 fold
[2]; CVC treatment groups, week 18
  Effect on NASH-derived HCC: not observed
[2]; [8]
  Body weight: 20.8 ± 2.7 g
  CD31-positive area: 3.68±1.37%
  Liver weight: 1817 ± 446 mg
  Maximum diameter of visible tumor nodules: 5.3±5.1 mm
  Number of visible tumor nodules: 3.6±2.5
[2]; [9]
  Body weight: 20.8 ± 2.7 g
  CD31-positive area: 3.68 ± 1.37%
  Liver weight: 1817 ± 446 mg
  Maximum diameter of visible tumor nodules: 5.3 ± 5.1 mm
  Number of visible tumor nodules: 3.6 ± 2.5
[2]; CVC-high, week 18
  Mice with GS-positive nodules: seven out of seven
  Mice with HCC lesions (HE staining): six out of seven
[2]; CVC-high
  Mice that died before sacrifice (survival analysis): Five out of twelve
[2]; CVC-low 20 mg/kg/day, week 18
  Body weight: 22.9 ± 3.5 g
  CD31-positive area: 1.47±1.10%
  Liver weight: 1837 ± 410 mg
  Maximum diameter of visible tumor nodules: 4.8±5.4 mm
  Number of visible tumor nodules: 1.5±1.9
[2]; [10]
  Body weight: 22.9 ± 3.5 g
  CD31-positive area: 1.47 ± 1.10%
  Liver weight: 1837 ± 410 mg
  Maximum diameter of visible tumor nodules: 4.8 ± 5.4 mm
  Number of visible tumor nodules: 1.5 ± 1.9
[2]; CVC-low, week 18
  Mice with GS-positive nodules: five out of six
  Mice with HCC lesions (HE staining): five out of six
[2]; CVC-low
  Mice that died before sacrifice (survival analysis): Six out of twelve
[3]
  Concentration at which saturation of monocyte CCR2 was reached: 6 nM
  Concentration required to reach >80% CCR2 receptor occupancy (average): 1.8 nM
[3]; at 6 nM
  receptor occupancy at 0.006 µM: ~98%
[3]; in the absence of MCP-1
  CCR2 cell-surface expression: induced CCR2 internalization and decreased cell-surface expression on monocytes
[4]; 25 mg
  Subjects with ALT and/or AST elevations (all Grade 1): 2 subjects
[4]; 50 mg
  Subjects with ALT and/or AST elevations (all Grade 1): 2 subjects
[4]; 100 mg
  Subjects with ALT and/or AST elevations (all Grade 1): 1 subject
[4]; 150 mg
  Subjects with ALT and/or AST elevations (all Grade 1): 1 subject
[4]; 25-150 mg once daily, 10 days
  Tolerability: generally well tolerated
[4]; Study 201, all subjects
  Treatment-emergent AE: diarrhea: 16.7%
  Treatment-emergent AE: fatigue: 11.0%
  Treatment-emergent AE: headache: 14.8%
  Treatment-emergent AE: nausea: 18.5%
[4]; during the study
  Grade 2-4 elevations in ALT or AST: No Grade 2-4 elevations

## O=C1Nc2ccc(Cl)cc2[C@@](C#CC2CC2)(C(F)(F)F)O1 [EFV, efavirenz, reference compound]
[5]
  Full-length intracellular HIV DNA, mean fold-change from baseline: 0.825 fold
  Strong-stop intracellular HIV DNA, mean fold-change from baseline: 1.01 fold
